Read-outs that look alike come from different tables or passages of the source. Positions of bridges follow the written chain, without caps; N, C: chain ends. Residues, ends and D or L forms follow the SMILES beside them.

Experiment in all cases: cell-based
Test [1] deals with hNav1.7 (Homo sapiens, UniProt Q15858). Type of test: cell-based. The following applies: IonWorks Quattro, read-out: IWQ Use Nav1.7. For orientation: The patch-clamp technique gives a direct electrical read-out from membranes.
Test [2] has as its target hNav1.5 (Homo sapiens, UniProt Q14524).
Test [3] addresses hNav1.3 (Homo sapiens, UniProt Q9NY46). The following applies: IonWorks Quattro, read-out: IWQ Use Nav1.3.
The mark [4] stands for this setting: IonWorks Quattro, Use, read-out: IWQ Use Nav1.5.

hNav1.3, sequence (Q9NY46 whole entry, looked up): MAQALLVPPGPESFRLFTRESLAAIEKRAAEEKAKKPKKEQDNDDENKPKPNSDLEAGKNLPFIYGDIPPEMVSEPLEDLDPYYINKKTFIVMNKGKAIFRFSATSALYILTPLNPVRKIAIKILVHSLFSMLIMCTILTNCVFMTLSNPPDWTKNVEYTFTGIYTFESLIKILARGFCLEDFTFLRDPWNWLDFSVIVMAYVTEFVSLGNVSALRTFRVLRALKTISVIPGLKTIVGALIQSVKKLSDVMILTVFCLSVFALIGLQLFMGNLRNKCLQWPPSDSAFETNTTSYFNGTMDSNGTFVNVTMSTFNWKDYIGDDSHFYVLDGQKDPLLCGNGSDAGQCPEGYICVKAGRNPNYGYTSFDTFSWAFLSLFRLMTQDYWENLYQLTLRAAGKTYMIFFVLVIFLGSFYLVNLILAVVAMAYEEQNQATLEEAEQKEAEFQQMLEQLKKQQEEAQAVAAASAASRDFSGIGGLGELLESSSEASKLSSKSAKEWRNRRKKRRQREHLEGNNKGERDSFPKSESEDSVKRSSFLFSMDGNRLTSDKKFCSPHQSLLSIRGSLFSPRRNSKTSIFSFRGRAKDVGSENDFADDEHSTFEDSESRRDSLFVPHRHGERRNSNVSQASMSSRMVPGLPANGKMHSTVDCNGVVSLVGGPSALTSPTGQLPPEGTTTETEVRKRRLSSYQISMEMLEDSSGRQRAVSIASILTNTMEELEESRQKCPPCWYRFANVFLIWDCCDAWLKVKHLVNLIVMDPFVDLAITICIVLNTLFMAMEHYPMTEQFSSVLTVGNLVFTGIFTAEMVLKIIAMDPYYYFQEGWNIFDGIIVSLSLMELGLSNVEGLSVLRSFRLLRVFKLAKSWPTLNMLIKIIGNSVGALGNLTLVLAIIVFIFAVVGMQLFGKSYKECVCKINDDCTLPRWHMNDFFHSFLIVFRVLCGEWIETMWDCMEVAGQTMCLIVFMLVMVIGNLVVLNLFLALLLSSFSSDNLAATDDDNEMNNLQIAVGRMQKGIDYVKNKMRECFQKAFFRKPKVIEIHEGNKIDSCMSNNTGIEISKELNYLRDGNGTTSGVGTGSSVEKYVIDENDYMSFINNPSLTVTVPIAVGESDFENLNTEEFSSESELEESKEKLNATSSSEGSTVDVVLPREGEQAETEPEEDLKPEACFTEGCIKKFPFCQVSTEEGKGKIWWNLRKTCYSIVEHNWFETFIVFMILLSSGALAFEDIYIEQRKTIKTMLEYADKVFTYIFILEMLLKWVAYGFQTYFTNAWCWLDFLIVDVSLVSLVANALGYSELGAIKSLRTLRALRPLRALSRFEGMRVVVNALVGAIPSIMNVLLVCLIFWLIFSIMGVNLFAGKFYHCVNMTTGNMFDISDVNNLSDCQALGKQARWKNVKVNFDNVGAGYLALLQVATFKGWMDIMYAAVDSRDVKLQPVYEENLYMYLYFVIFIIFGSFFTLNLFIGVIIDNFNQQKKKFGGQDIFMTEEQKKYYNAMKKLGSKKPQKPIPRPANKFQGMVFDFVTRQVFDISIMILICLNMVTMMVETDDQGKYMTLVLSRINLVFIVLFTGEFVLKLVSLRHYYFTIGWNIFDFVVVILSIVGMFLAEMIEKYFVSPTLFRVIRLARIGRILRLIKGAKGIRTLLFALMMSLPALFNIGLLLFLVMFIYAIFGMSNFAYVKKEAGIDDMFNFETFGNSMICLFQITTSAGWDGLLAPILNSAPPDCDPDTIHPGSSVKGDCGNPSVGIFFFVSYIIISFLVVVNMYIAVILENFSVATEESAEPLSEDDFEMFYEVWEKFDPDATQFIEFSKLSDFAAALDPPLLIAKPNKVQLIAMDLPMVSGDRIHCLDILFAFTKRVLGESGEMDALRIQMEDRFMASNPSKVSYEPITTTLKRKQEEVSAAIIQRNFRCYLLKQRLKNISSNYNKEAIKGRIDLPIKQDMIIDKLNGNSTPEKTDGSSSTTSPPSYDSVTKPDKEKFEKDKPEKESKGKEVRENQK
hNav1.5, sequence (Q14524 whole entry, looked up): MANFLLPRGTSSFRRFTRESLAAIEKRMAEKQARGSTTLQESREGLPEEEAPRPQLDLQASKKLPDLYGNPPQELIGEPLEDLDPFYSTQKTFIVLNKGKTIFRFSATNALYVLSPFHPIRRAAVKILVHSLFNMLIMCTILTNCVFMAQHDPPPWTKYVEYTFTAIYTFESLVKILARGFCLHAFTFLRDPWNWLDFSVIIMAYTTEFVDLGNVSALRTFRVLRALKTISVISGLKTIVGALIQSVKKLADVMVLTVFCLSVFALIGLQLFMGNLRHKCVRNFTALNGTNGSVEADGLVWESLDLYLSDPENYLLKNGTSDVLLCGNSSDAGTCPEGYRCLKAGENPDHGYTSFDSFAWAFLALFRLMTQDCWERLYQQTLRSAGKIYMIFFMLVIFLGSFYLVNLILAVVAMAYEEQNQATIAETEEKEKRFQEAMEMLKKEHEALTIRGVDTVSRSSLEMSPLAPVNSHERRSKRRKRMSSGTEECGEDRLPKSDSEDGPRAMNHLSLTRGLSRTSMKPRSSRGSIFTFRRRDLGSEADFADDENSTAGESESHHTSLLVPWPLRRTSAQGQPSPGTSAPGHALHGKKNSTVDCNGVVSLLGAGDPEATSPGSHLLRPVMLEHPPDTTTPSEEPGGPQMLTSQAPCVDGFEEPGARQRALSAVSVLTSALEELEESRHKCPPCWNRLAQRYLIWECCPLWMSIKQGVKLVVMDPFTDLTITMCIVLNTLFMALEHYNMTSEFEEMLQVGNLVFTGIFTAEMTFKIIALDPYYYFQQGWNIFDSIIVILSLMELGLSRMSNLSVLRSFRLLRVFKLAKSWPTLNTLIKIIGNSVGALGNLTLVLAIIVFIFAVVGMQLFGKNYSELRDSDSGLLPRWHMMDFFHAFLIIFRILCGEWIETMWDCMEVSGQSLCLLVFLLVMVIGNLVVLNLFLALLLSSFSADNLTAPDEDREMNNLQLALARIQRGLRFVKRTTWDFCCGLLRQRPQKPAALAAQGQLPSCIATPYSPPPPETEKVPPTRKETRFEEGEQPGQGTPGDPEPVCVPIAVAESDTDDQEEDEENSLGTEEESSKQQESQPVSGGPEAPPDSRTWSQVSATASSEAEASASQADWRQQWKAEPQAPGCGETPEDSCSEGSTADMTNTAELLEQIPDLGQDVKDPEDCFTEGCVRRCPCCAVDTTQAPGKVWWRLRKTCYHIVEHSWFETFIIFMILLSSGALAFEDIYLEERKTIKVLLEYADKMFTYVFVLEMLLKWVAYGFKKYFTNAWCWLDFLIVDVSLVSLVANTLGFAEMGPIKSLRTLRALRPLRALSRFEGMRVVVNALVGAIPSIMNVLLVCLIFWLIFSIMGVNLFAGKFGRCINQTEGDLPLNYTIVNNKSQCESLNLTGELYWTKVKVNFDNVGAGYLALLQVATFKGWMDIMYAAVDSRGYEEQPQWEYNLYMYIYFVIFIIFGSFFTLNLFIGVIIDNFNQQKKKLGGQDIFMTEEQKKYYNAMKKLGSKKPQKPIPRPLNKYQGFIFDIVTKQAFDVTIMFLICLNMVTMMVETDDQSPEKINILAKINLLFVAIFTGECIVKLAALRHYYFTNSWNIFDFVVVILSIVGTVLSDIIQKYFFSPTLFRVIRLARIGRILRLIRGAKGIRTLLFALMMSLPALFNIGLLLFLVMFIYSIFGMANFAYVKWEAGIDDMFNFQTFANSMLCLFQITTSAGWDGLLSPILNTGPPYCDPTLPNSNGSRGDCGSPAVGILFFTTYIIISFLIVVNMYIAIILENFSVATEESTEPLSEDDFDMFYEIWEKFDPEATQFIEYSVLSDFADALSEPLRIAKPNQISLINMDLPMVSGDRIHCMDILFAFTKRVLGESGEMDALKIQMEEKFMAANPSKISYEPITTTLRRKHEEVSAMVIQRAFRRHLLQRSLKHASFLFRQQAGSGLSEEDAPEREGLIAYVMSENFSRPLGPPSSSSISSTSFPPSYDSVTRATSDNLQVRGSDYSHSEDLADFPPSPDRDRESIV

For the compound `CC[C@H](C)[C@@H]1NC(=O)[C@@H]2CSSC[C@@H]3NC(=O)[C@H](C(C)C)NC(=O)[C@H](CC(C)C)NC(=O)[C@H](CC(N)=O)NC(=O)[C@@H]4CCCN4C(=O)[C@H](CCCNC(=N)N)NC(=O)[C@H](CSSC[C@H](NC(=O)[C@@H](N)CC(=O)O)C(=O)N[C@@H](CC(C)C)C(=O)NCC(=O)N[C@@H](Cc4ccccc4)C(=O)N[C@@H](CCSC)C(=O)N[C@@H](CCCNC(=N)N)C(=O)N[C@@H](CCCCN)C(=O)N2)NC(=O)[C@H](CSSC[C@@H](C(=O)N[C@@H](CCCCN)C(=O)N[C@@H](Cc2ccc(O)cc2)C(=O)N[C@H](C(=O)N[C@@H](Cc2ccccc2)C(N)=O)C(C)C)NC(=O)[C@H](CC(C)C)NC(=O)[C@H](CCCCN)NC(=O)[C@H](Cc2c[nH]cn2)NC(=O)[C@H]([C@@H](C)O)NC(=O)[C@H](CCCNC(=N)N)NC(=O)[C@H](CO)NC3=O)NC(=O)[C@H](CCCCN)NC(=O)[C@H](CC(=O)O)NC(=O)[C@H](CC(N)=O)NC(=O)[C@H](CC(=O)O)NC(=O)[C@@H]2CCCN2C1=O` [compound 114] (H-DCLGFMRKCIPDNDKCCRPNLVCSRTHKLCKYVF-NH2; disulfide 2-17, 9-23, 16-30), the IC50 in test [1] (Table 24, use, […]) turned out to be 6990 nM; in test [2] (Table 24, IonWorks Quattro, use, […], read-out: IWQ Use Nav1.5) it was 7.27 µM; in test [3] (Table 24, use, […]), 9800 nM.

Take `CC[C@H](C)[C@@H]1NC(=O)[C@@H]2CSSC[C@@H]3NC(=O)[C@H](C(C)C)NC(=O)[C@H](CC(C)C)NC(=O)[C@H](CC(N)=O)NC(=O)[C@@H]4CCCN4C(=O)[C@H](CCCNC(N)=O)NC(=O)[C@H](CSSC[C@H](NC(=O)[C@@H](N)CC(=O)O)C(=O)N[C@@H](CC(C)C)C(=O)NCC(=O)N[C@@H](Cc4ccccc4)C(=O)N[C@@H](CCSC)C(=O)N[C@@H](CCCNC(=N)N)C(=O)N[C@@H](CCCCN)C(=O)N2)NC(=O)[C@H](CSSC[C@@H](C(=O)N[C@@H](CCCCN)C(=O)N[C@@H](Cc2ccc(O)cc2)C(=O)N[C@H](C(=O)N[C@@H](Cc2ccccc2)C(N)=O)C(C)C)NC(=O)[C@H](Cc2c[nH]c4ccccc24)NC(=O)[C@H](CCCCN)NC(=O)[C@H](Cc2cnc[nH]2)NC(=O)[C@H]([C@@H](C)O)NC(=O)[C@H](CCCNC(=N)N)NC(=O)[C@H](CO)NC3=O)NC(=O)[C@H](CCCCN)NC(=O)[C@H](CC(=O)O)NC(=O)[C@H](CC(N)=O)NC(=O)[C@H](CC(=O)O)NC(=O)[C@@H]2CCCN2C1=O` [compound 116]: the values for the IC50 in test [1] (Use), in test [2] (IWQ Use Nav1.5 (μM)) and in test [3] (Use) were 170 nM, 11 µM and 230 nM, respectively.

For the compound `CC[C@H](C)[C@@H]1NC(=O)[C@@H]2CSSC[C@@H]3NC(=O)[C@H](C(C)C)NC(=O)[C@H](CC(C)C)NC(=O)[C@H](CC(N)=O)NC(=O)[C@@H]4CCCN4C(=O)[C@H](CCCNC(=N)N)NC(=O)[C@H](CSSC[C@H](NC(=O)[C@@H](N)CC(=O)O)C(=O)N[C@@H](CC(C)C)C(=O)NCC(=O)N[C@@H](Cc4ccccc4)C(=O)N[C@@H](CCSC)C(=O)N[C@@H](CCCNC(=N)N)C(=O)N[C@@H](CCCCN)C(=O)N2)NC(=O)[C@H](CSSC[C@@H](C(=O)N[C@@H](CCCCN)C(=O)N[C@@H](Cc2ccc(O)cc2)C(=O)N[C@H](C(=O)N[C@@H](Cc2ccccc2)C(N)=O)C(C)C)NC(=O)[C@H](Cc2c[nH]c4ccccc24)NC(=O)[C@H](CCCCN)NC(=O)[C@H](Cc2c[nH]cn2)NC(=O)[C@H]([C@@H](C)O)NC(=O)[C@H](CCCNC(N)=O)NC(=O)[C@H](CO)NC3=O)NC(=O)[C@H](CCCCN)NC(=O)[C@H](CC(=O)O)NC(=O)[C@H](CC(N)=O)NC(=O)[C@H](CC(=O)O)NC(=O)[C@@H]2CCCN2C1=O` [compound 117], the IC50 in test [1] (Use) is 320 nM; in test [2] (setting [4]) it was 8.87 µM; in test [3] (Use), 510 nM.

For `CC[C@H](C)[C@@H]1NC(=O)[C@@H]2CSSC[C@@H]3NC(=O)[C@H](C(C)C)NC(=O)[C@H](CCSC)NC(=O)[C@H](CC(N)=O)NC(=O)[C@@H]4CCCN4C(=O)[C@H](CCCNC(=N)N)NC(=O)[C@H](CSSC[C@H](NC(=O)[C@@H](N)CC(=O)O)C(=O)N[C@@H](CC(C)C)C(=O)NCC(=O)N[C@@H](Cc4ccccc4)C(=O)N[C@@H](CCSC)C(=O)N[C@@H](CCCNC(=N)N)C(=O)N[C@@H](CCCCN)C(=O)N2)NC(=O)[C@H](CSSC[C@@H](C(=O)N[C@@H](CCCCN)C(=O)N[C@@H](Cc2ccc(O)cc2)C(=O)N[C@H](C(=O)N[C@@H](Cc2ccccc2)C(N)=O)C(C)C)NC(=O)[C@H](Cc2c[nH]c4ccccc24)NC(=O)[C@H](CCCCN)NC(=O)[C@H](Cc2c[nH]cn2)NC(=O)[C@H]([C@@H](C)O)NC(=O)[C@H](CCCNC(=N)N)NC(=O)[C@H](CO)NC3=O)NC(=O)[C@H](CCCCN)NC(=O)[C@H](CC(=O)O)NC(=O)[C@H](CC(N)=O)NC(=O)[C@H](CC(=O)O)NC(=O)[C@@H]2CCCN2C1=O` [compound 120] (H-DCLGFMRKCIPDNDKCCRPNMVCSRTHKWCKYVF-NH2; disulfide 2-17, 9-23, 16-30), the IC50 in test [1] (Use) stood at 140 nM; in test [2] (setting [4]) it was 9.54 µM; in test [3] (Use) it was 90 nM.

On to `CC[C@H](C)[C@@H]1NC(=O)[C@@H]2CSSC[C@@H]3NC(=O)[C@H](C(C)C)NC(=O)[C@H](CC(C)C)NC(=O)[C@H](CC(N)=O)NC(=O)[C@@H]4CCCN4C(=O)[C@H](CCCNC(=N)N)NC(=O)[C@H](CSSC[C@H](NC(=O)[C@@H](N)CC(=O)O)C(=O)N[C@@H](CC(C)C)C(=O)NCC(=O)N[C@@H](Cc4ccccc4)C(=O)N[C@@H](CCSC)C(=O)N[C@@H](CCCNC(=N)N)C(=O)N[C@@H](CCCCN)C(=O)N2)NC(=O)[C@H](CSSC[C@@H](C(=O)N[C@@H](CCCCN)C(=O)N[C@@H](Cc2ccc(O)cc2)C(=O)N[C@H](C(=O)N[C@@H](CC(C)C)C(N)=O)C(C)C)NC(=O)[C@H](Cc2c[nH]c4ccccc24)NC(=O)[C@H](CCCCN)NC(=O)[C@H](Cc2c[nH]cn2)NC(=O)[C@H]([C@@H](C)O)NC(=O)[C@H](CCCNC(=N)N)NC(=O)[C@H](CO)NC3=O)NC(=O)[C@H](CCCCN)NC(=O)[C@H](CC(=O)O)NC(=O)[C@H](CC(N)=O)NC(=O)[C@H](CC(=O)O)NC(=O)[C@@H]2CCCN2C1=O` [compound 122] (H-DCLGFMRKCIPDNDKCCRPNLVCSRTHKWCKYVL-NH2; disulfide 2-17, 9-23, 16-30), for which the IC50 was found to be 240 nM in test [1] (use-dependent, […]); 8.46 µM in test [2] (IonWorks Quattro, use-dependent, […], read-out: IWQ Use Nav1.5); 130 nM in test [3] (use-dependent, […]).

Consider `CC[C@H](C)[C@@H]1NC(=O)[C@@H]2CSSC[C@@H]3NC(=O)[C@H](C(C)C)NC(=O)[C@H](CC(C)C)NC(=O)[C@H](CC(N)=O)NC(=O)CNC(=O)[C@H](CCCNC(=N)N)NC(=O)[C@H](CSSC[C@H](NC(=O)[C@@H](N)CC(=O)O)C(=O)N[C@@H](CC(C)C)C(=O)NCC(=O)N[C@@H](Cc4ccccc4)C(=O)N[C@@H](CCSC)C(=O)N[C@@H](CCCNC(=N)N)C(=O)N[C@@H](CCCCN)C(=O)N2)NC(=O)[C@H](CSSC[C@@H](C(=O)N[C@@H](CCCCN)C(=O)N[C@@H](Cc2ccc(O)cc2)C(=O)N[C@H](C(=O)N[C@@H](Cc2ccccc2)C(N)=O)C(C)C)NC(=O)[C@H](Cc2c[nH]c4ccccc24)NC(=O)[C@H](CCCCN)NC(=O)[C@H](Cc2c[nH]cn2)NC(=O)[C@H]([C@@H](C)O)NC(=O)[C@H](CCCNC(=N)N)NC(=O)[C@H](CO)NC3=O)NC(=O)[C@H](CCCCN)NC(=O)[C@H](CC(=O)O)NC(=O)[C@H](CC(N)=O)NC(=O)[C@H](CC(=O)O)NC(=O)[C@@H]2CCCN2C1=O` [compound 126] (H-DCLGFMRKCIPDNDKCCRGNLVCSRTHKWCKYVF-NH2; disulfide 2-17, 9-23, 16-30), for which the IC50 in test [1] (Use) came out at 100 nM; in test [2] (setting [4]), 11.9 µM; in test [3] (Use) it was 110 nM.

For `CC[C@H](C)[C@@H]1NC(=O)[C@@H]2CSSC[C@@H]3NC(=O)[C@H](C(C)C)NC(=O)[C@H](CC(C)C)NC(=O)[C@H](CC(N)=O)NC(=O)[C@@H]4CCCN4C(=O)[C@H](CCCNC(=N)N)NC(=O)[C@H](CSSC[C@H](NC(=O)[C@@H](N)CC(=O)O)C(=O)N[C@@H](CC(C)C)C(=O)NCC(=O)N[C@@H](Cc4ccccc4)C(=O)N[C@@H](CCSC)C(=O)N[C@@H](CCCNC(=N)N)C(=O)N[C@@H](CCCCN)C(=O)N2)NC(=O)[C@H](CSSC[C@@H](C(=O)N[C@@H](CCCCN)C(=O)N[C@@H](CCCCN)C(=O)N[C@H](C(=O)N[C@@H](Cc2ccccc2)C(=O)N[C@@H](Cc2c[nH]c4ccccc24)C(N)=O)C(C)C)NC(=O)[C@H](Cc2c[nH]c4ccccc24)NC(=O)[C@H](CCCCN)NC(=O)[C@H](Cc2c[nH]cn2)NC(=O)[C@H]([C@@H](C)O)NC(=O)[C@H](CCCNC(=N)N)NC(=O)[C@H](CO)NC3=O)NC(=O)[C@H](CCCCN)NC(=O)[C@H](CC(=O)O)NC(=O)[C@H](CC(N)=O)NC(=O)[C@H](CC(=O)O)NC(=O)[C@@H]2CCCN2C1=O` [compound 127] (H-DCLGFMRKCIPDNDKCCRPNLVCSRTHKWCKKVFW-NH2; disulfide 2-17, 9-23, 16-30), the IC50 in test [1] (use-dependent block, hNav1.7) worked out at 730 nM; in test [2] (IonWorks Quattro, use-dependent block, hNav1.5, read-out: IWQ Use Nav1.5), 18.9 µM; in test [3] (use-dependent block, hNav1.3), 700 nM.

Values taken from patent US9340590B2 (priority 2011, dated 2016).
